#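 Test compounds were applied to cells in 96-well plates for 48 hours at 5 doses. Definition used: TGI = concentration required for complete inhibition of growth.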
# Tests used:
# Assay in all cases: inhibition of tumour cell growth, NCI panel, 48 h
# 786-0 renal = system: 786-0 renal
# A498 renal = system: A498 renal
# A549 NSCLC = system: A549 NSCLC
# ACHN renal = system: ACHN renal
# BT-549 breast = system: BT-549 breast
# CAKI-1 renal = system: CAKI-1 renal
# CCRF-CEM leukemia = system: CCRF-CEM leukemia
# COLO 205 colon = system: COLO 205 colon
# DU-145 prostate = system: DU-145 prostate
# EKVX NSCLC = system: EKVX NSCLC
# HCC-2998 colon = system: HCC-2998 colon
# HCT-116 colon = system: HCT-116 colon
# HCT-15 colon = system: HCT-15 colon
# HL-60(TB) leukemia = system: HL-60(TB) leukemia
# HOP-62 NSCLC = system: HOP-62 NSCLC
# HOP-92 NSCLC = system: HOP-92 NSCLC
# HS 578T breast = system: HS 578T breast
# HT29 colon = system: HT29 colon
# IGROV1 ovarian = system: IGROV1 ovarian
# K-562 leukemia = system: K-562 leukemia
# KM12 colon = system: KM12 colon
# LOX IMVI melanoma = system: LOX IMVI melanoma
# M14 melanoma = system: M14 melanoma
# MALME-3M melanoma = system: MALME-3M melanoma
# MCF7 breast = system: MCF7 breast
# MDA-MB-231 breast = system: MDA-MB-231 breast
# MDA-MB-435 = system: MDA-MB-435
# MDA-N = system: MDA-N
# MOLT-4 leukemia = system: MOLT-4 leukemia
# NCI-H226 lung = system: NCI-H226 lung
# NCI-H23 lung = system: NCI-H23 lung
# NCI-H460 lung = system: NCI-H460 lung
# NCI-H522 lung = system: NCI-H522 lung
# NCI/ADR-RES ovarian = system: NCI/ADR-RES ovarian
# OVCAR-3 ovarian = system: OVCAR-3 ovarian
# OVCAR-4 ovarian = system: OVCAR-4 ovarian
# OVCAR-5 ovarian = system: OVCAR-5 ovarian
# OVCAR-8 ovarian = system: OVCAR-8 ovarian
# PC-3 prostate = system: PC-3 prostate
# RPMI-8226 leukemia = system: RPMI-8226 leukemia
# RXF 393 renal = system: RXF 393 renal
# SF-268 CNS = system: SF-268 CNS
# SF-295 CNS = system: SF-295 CNS
# SF-539 CNS = system: SF-539 CNS
# SK-MEL-2 melanoma = system: SK-MEL-2 melanoma
# SK-MEL-28 melanoma = system: SK-MEL-28 melanoma
# SK-MEL-5 melanoma = system: SK-MEL-5 melanoma
# SK-OV-3 ovarian = system: SK-OV-3 ovarian
# SN12C renal = system: SN12C renal
# SNB-19 CNS = system: SNB-19 CNS
# SNB-75 CNS = system: SNB-75 CNS
# SR leukemia = system: SR leukemia
# SW-620 colon = system: SW-620 colon
# T-47D breast = system: T-47D breast
# TK-10 renal = system: TK-10 renal
# U251 CNS = system: U251 CNS
# UACC-257 melanoma = system: UACC-257 melanoma
# UACC-62 melanoma = system: UACC-62 melanoma
# DLD-1 colon = system: DLD-1 colon
# DMS 273 small cell lung = system: DMS 273 small cell lung
# HOP-18 NSCLC = system: HOP-18 NSCLC
# LXFL 529 NSCLC = system: LXFL 529 NSCLC
# M19-MEL melanoma = system: M19-MEL melanoma
# SNB-78 CNS = system: SNB-78 CNS
# UO-31 renal = system: UO-31 renal
structure (smiles),measurement,setting,value
C=C(C)C(=O)OC1C(C(C)CCCO)=C(CO)CC2OC(=O)C(=C)C21 (stereo not drawn),TGI,786-0 renal,25.9 µM
same,TGI,A498 renal,36.5 µM
same,TGI,A549 NSCLC,63.7 µM
same,TGI,ACHN renal,79.8 µM
same,TGI,BT-549 breast,34.7 µM
same,TGI,CAKI-1 renal,31.3 µM
same,TGI,CCRF-CEM leukemia,> 100 µM
same,TGI,COLO 205 colon,29.3 µM
same,TGI,DU-145 prostate,27.8 µM
same,TGI,EKVX NSCLC,87.2 µM
same,TGI,HCC-2998 colon,31.8 µM
same,TGI,HCT-116 colon,32.2 µM
same,TGI,HCT-15 colon,26.9 µM
same,TGI,HL-60(TB) leukemia,> 100 µM
same,TGI,HOP-62 NSCLC,> 100 µM
same,TGI,HOP-92 NSCLC,44.2 µM
same,TGI,HS 578T breast,> 100 µM
same,TGI,HT29 colon,45.9 µM
same,TGI,IGROV1 ovarian,38.8 µM
same,TGI,K-562 leukemia,49.4 µM
same,TGI,KM12 colon,27.7 µM
same,TGI,LOX IMVI melanoma,24.5 µM
same,TGI,M14 melanoma,33.8 µM
same,TGI,MALME-3M melanoma,17.8 µM
same,TGI,MCF7 breast,24.1 µM
same,TGI,MDA-MB-231 breast,36 µM
same,TGI,MDA-MB-435,52.1 µM
same,TGI,MDA-N,37.7 µM
same,TGI,MOLT-4 leukemia,88.9 µM
same,TGI,NCI-H226 lung,> 100 µM
same,TGI,NCI-H23 lung,43 µM
same,TGI,NCI-H460 lung,37.8 µM
same,TGI,NCI-H522 lung,13.1 µM
same,TGI,NCI/ADR-RES ovarian,> 100 µM
same,TGI,OVCAR-3 ovarian,54.5 µM
same,TGI,OVCAR-4 ovarian,> 100 µM
same,TGI,OVCAR-5 ovarian,54.3 µM
same,TGI,OVCAR-8 ovarian,> 100 µM
same,TGI,PC-3 prostate,76.6 µM
same,TGI,RPMI-8226 leukemia,91.9 µM
same,TGI,RXF 393 renal,27.2 µM
same,TGI,SF-268 CNS,48.8 µM
same,TGI,SF-295 CNS,> 100 µM
same,TGI,SF-539 CNS,58.9 µM
same,TGI,SK-MEL-2 melanoma,61.7 µM
same,TGI,SK-MEL-28 melanoma,49.1 µM
same,TGI,SK-MEL-5 melanoma,28.5 µM
same,TGI,SK-OV-3 ovarian,95.7 µM
same,TGI,SN12C renal,32.8 µM
same,TGI,SNB-19 CNS,> 100 µM
same,TGI,SNB-75 CNS,40.5 µM
same,TGI,SR leukemia,> 100 µM
same,TGI,SW-620 colon,28.8 µM
same,TGI,T-47D breast,45.5 µM
same,TGI,TK-10 renal,> 100 µM
same,TGI,U251 CNS,45.3 µM
same,TGI,UACC-257 melanoma,39.1 µM
same,TGI,UACC-62 melanoma,31.9 µM
CSc1c(S(C)=O)[nH]c2cc(Br)cc(Br)c12 (stereo not drawn),TGI,786-0 renal,31.9 µM
same,TGI,A498 renal,62.1 µM
same,TGI,A549 NSCLC,78.9 µM
same,TGI,ACHN renal,88.2 µM
same,TGI,CAKI-1 renal,74.3 µM
same,TGI,CCRF-CEM leukemia,58.5 µM
same,TGI,COLO 205 colon,33.1 µM
same,TGI,DLD-1 colon,51.9 µM
same,TGI,DMS 273 small cell lung,35.1 µM
same,TGI,EKVX NSCLC,59.7 µM
same,TGI,HCC-2998 colon,34.7 µM
same,TGI,HCT-116 colon,32.7 µM
same,TGI,HCT-15 colon,70.8 µM
same,TGI,HL-60(TB) leukemia,52.3 µM
same,TGI,HOP-18 NSCLC,80.5 µM
same,TGI,HOP-92 NSCLC,32.1 µM
same,TGI,HT29 colon,72.1 µM
same,TGI,IGROV1 ovarian,> 100 µM
same,TGI,K-562 leukemia,72.3 µM
same,TGI,KM12 colon,62.6 µM
same,TGI,LOX IMVI melanoma,31.9 µM
same,TGI,LXFL 529 NSCLC,48.8 µM
same,TGI,M14 melanoma,61.5 µM
same,TGI,M19-MEL melanoma,75.4 µM
same,TGI,MALME-3M melanoma,48.8 µM
same,TGI,MOLT-4 leukemia,61.5 µM
same,TGI,NCI-H226 lung,67.9 µM
same,TGI,NCI-H23 lung,50.4 µM
same,TGI,NCI-H460 lung,35.1 µM
same,TGI,NCI-H522 lung,55.5 µM
same,TGI,OVCAR-3 ovarian,45 µM
same,TGI,OVCAR-8 ovarian,61.8 µM
same,TGI,RPMI-8226 leukemia,57.7 µM
same,TGI,RXF 393 renal,33.6 µM
same,TGI,SF-295 CNS,45.2 µM
same,TGI,SF-539 CNS,47.5 µM
same,TGI,SK-MEL-28 melanoma,43.4 µM
same,TGI,SK-MEL-5 melanoma,38.1 µM
same,TGI,SK-OV-3 ovarian,61.9 µM
same,TGI,SN12C renal,33.9 µM
same,TGI,SNB-75 CNS,50.9 µM
same,TGI,SNB-78 CNS,57 µM
same,TGI,SW-620 colon,> 100 µM
same,TGI,TK-10 renal,78.1 µM
same,TGI,UACC-257 melanoma,> 100 µM
same,TGI,UACC-62 melanoma,39.3 µM
same,TGI,UO-31 renal,48.7 µM
C=CCOc1ccc(C2(c3ccc(OCC=C)cc3)C(=O)Nc3ccccc32)cc1,TGI,786-0 renal,> 10 µM
same,TGI,A498 renal,> 10 µM
same,TGI,A549 NSCLC,> 10 µM
same,TGI,ACHN renal,> 10 µM
same,TGI,BT-549 breast,> 10 µM
same,TGI,CAKI-1 renal,> 10 µM
same,TGI,CCRF-CEM leukemia,> 10 µM
same,TGI,COLO 205 colon,> 10 µM
same,TGI,DU-145 prostate,> 10 µM
same,TGI,EKVX NSCLC,> 10 µM
same,TGI,HCC-2998 colon,> 10 µM
same,TGI,HCT-116 colon,> 10 µM
same,TGI,HCT-15 colon,> 10 µM
same,TGI,HL-60(TB) leukemia,> 10 µM
same,TGI,HOP-62 NSCLC,> 10 µM
same,TGI,HOP-92 NSCLC,> 10 µM
same,TGI,HS 578T breast,6.38 µM
same,TGI,HT29 colon,> 10 µM
same,TGI,IGROV1 ovarian,> 10 µM
same,TGI,K-562 leukemia,> 10 µM
same,TGI,KM12 colon,> 10 µM
same,TGI,LOX IMVI melanoma,> 10 µM
same,TGI,M14 melanoma,> 10 µM
same,TGI,MALME-3M melanoma,> 10 µM
same,TGI,MCF7 breast,> 10 µM
same,TGI,MDA-MB-231 breast,> 10 µM
same,TGI,MDA-MB-435,> 10 µM
same,TGI,MDA-N,> 10 µM
same,TGI,MOLT-4 leukemia,> 10 µM
same,TGI,NCI-H226 lung,> 10 µM
same,TGI,NCI-H23 lung,> 10 µM
same,TGI,NCI-H460 lung,> 10 µM
same,TGI,NCI-H522 lung,> 10 µM
same,TGI,NCI/ADR-RES ovarian,> 10 µM
same,TGI,OVCAR-3 ovarian,> 10 µM
same,TGI,OVCAR-4 ovarian,> 10 µM
same,TGI,OVCAR-5 ovarian,> 10 µM
same,TGI,OVCAR-8 ovarian,> 10 µM
same,TGI,PC-3 prostate,> 10 µM
same,TGI,RPMI-8226 leukemia,> 10 µM
same,TGI,RXF 393 renal,> 10 µM
same,TGI,SF-268 CNS,> 10 µM
same,TGI,SF-295 CNS,> 10 µM
same,TGI,SF-539 CNS,> 10 µM
same,TGI,SK-MEL-2 melanoma,> 10 µM
same,TGI,SK-MEL-28 melanoma,> 10 µM
same,TGI,SK-MEL-5 melanoma,> 10 µM
same,TGI,SK-OV-3 ovarian,> 10 µM
same,TGI,SN12C renal,> 10 µM
same,TGI,SNB-19 CNS,> 10 µM
same,TGI,SNB-75 CNS,> 10 µM
same,TGI,SR leukemia,> 10 µM
same,TGI,SW-620 colon,> 10 µM
same,TGI,T-47D breast,> 10 µM
same,TGI,TK-10 renal,> 10 µM
same,TGI,U251 CNS,> 10 µM
same,TGI,UACC-257 melanoma,> 10 µM
same,TGI,UACC-62 melanoma,> 10 µM

# Source: PubChem BioAssay (NCI)
